In US11083737B1, “Methods of administering deflazacort therapy” (PTC Therapeutics, Inc., priority 2016, dated 2021):

Key:
[1] = Phase 1 open label pharmacokinetic study of oral deflazacort tablets (0.9 mg/kg/day, 8 days) in children and adolescents with DMD; format: in vivo, human; conditions: for geometric mean terminal elimination half-life: Day 1; for time by which plasma concentrations were quantifiable (first post-dose sample): all children and adolescents, Days 1 and 8
Experimental: FIG. 1 is a line graph illustrating mean plasma 21-desDFZ (active deflazacort metabolite) concentration (ng/mL; y-axis) vs. time (hours; x-axis) overlaid by study population on Day 8 (linear scale; circles=adolescent; triangles=child). Children (ages 5-11, inclusive) and adolescents (ages 12-16, inclusive) were administered the weight-based regimen of 0.9 mg/kg/day deflazacort orally once daily for 8 days. Blood samples were collected through eight hours post-dose. Blood samples were processed to plasma and concentrations of 21-desDFZ were measured using validated bioanalytical assays.
Pharmacokinetic analysis was performed as part of an open label, Phase 1 single-period study. Twenty-six (26) male DMD subjects were enrolled, consisting of children (ages 4 up to 12) and adolescents (ages 12 to 16, inclusive) with at least 12 subjects between the ages of 4 and 12 (children). The primary objective of the study was characterization of the single-dose and steady-state PK of deflazacort and its active deflazacort metabolite (21-desDFZ). The characterization of the PK of the 21-desDFZ metabolite 6β-OH-21-desDFZ was included as a secondary outcome. A total of 24 subjects (16 children and 8 adolescents) received deflazacort tablets (0.9 mg/kg/day) for 8 days. Blood samples for PK profiles were collected on Days 1 and 8. All 24 subjects who completed the study had sufficient data to use in the PK analysis. Plasma 21-desDFZ concentrations were quantifiable by the time of the first post-dose sample collection (0.5 hours) in all children and adolescents on Days 1 and 8. Plasma 21-desDFZ concentrations remained above the limit of quantification in most subjects over the 8-hour sampling window on both study days.

[2] = Applicants' clinical observation of deflazacort in ambulatory and non-ambulatory DMD patients; format: in vivo, human; conditions: as early as six weeks after treatment initiation, preserved up to 24-months
[3] = Day 1, deflazacort 0.9 mg/kg/day orally
[4] = Day 8, deflazacort 0.9 mg/kg/day orally
[5] = after a single oral dose of deflazacort and at steady-state
[6] = Days 1 and 8, deflazacort 0.9 mg/kg/day orally

Row | SMILES | geometric mean Cmax, adolescents relative to children [1, 3] | geometric mean Cmax, adolescents relative to children [1, 4] | mean plasma concentration in children as percent of that observed in adolescents ([1]; about one hour following administration, Day 8, deflazacort 0.9 mg/kg/day orally) | geometric mean terminal elimination half-life ([1]; adolescents) | clearance (CL/F), children vs adolescents [1, 5] | volume of distribution (Vd/F), children vs adolescents [1, 5] | time by which plasma concentrations were quantifiable (first post-dose sample) [1] | geometric mean terminal elimination half-life ([1]; children) | muscle strength in ambulatory and non-ambulatory patients [2] | geometric mean AUCinf, adolescents relative to children [1, 6] | geometric mean AUClast, adolescents relative to children [1, 6]
1 | CC1=N[C@]2(C(=O)CO)[C@@H](C[C@H]3[C@@H]4CCC5=CC(=O)C=C[C@]5(C)[C@H]4[C@@H](O)C[C@@]32C)O1 [21-desDFZ, 21-desacetyldeflazacort] | almost double | 1.5 fold | 67% | 1.34 h | no differences | no differences | ≤ 0.5 h | 1.17 h | – | – | –
2 | CC(=O)OCC(=O)[C@@]12N=C(C)O[C@@H]1C[C@H]1[C@@H]3CCC4=CC(=O)C=C[C@]4(C)[C@H]3[C@@H](O)C[C@@]12C [deflazacort, (11β,16β)-21-(acetyloxy)-11-hydroxy-2′-methyl-5′H-pregna-1,4-dieno[17,16-d]oxazole-3,20-dione] | – | – | – | – | – | – | – | – | improves muscle strength | – | –
3 | CC1=N[C@]2(C(=O)CO)[C@@H](C[C@H]3[C@@H]4C[C@@H](O)C5=CC(=O)C=C[C@]5(C)[C@H]4[C@@H](O)C[C@@]32C)O1 [6β-OH-21-desDFZ] | roughly 1.25 fold | ~1.30 fold | – | 1.72 h | – | – | ≤ 0.5 h | 1.63 h | – | roughly 1.25 Fold | roughly 1.25 Fold
